According to article PMC6143478, “Lipophilic activated ester prodrug approach for drug delivery to the intestinal lymphatic system” (Journal of Controlled Release, 2018):
Where two headings read alike, the source gives them in different places.

Experiments:
human chylomicrons (CM) = test: Ex vivo association with human plasma-derived chylomicrons; assay type: in vitro ADME; conditions: 1.755 μM, 37 °C, 1 h; in words, relative to parent drug
Text: The protocol for preparation of human plasma-derived CM emulsion was approved by the Faculty of Medicine and Health Sciences Research Ethics Committee, Queens Medical Centre, Nottingham University Hospitals (BT12102015 CBS SoP). Healthy male volunteers of 19–40 years old and with body mass index of 18.5–25.0 were enrolled in the study after providing informed consent. The participants were excluded if any medication was used within one week prior to enrolment. On the morning of the study, participants received a high-fat meal (equivalent to a full English breakfast). Between 3 and 4 h following breakfast, 30 mL of blood was collected using heparinised tubes (Vacutainer® Blood Collection Tubes) and centrifuged (800 g, 10 min, 15 °C) to obtain plasma.
CM separation was performed as previously reported with minor modifications. Briefly, KBr (0.57 g) was mixed with 4 mL of plasma to yield density of 1.1 g/mL. PBS with densities of 1.006, 1.019, and 1.063 g/mL were prepared by adding appropriate amounts of KBr. These PBS of different densities were layered on top of the plasma to build density gradient layers in polyallomer ultracentrifuge tubes. The samples were then centrifuged at 268,350 g for 35 min at 15 °C using an ultracentrifuge (SORVALL® TH-641 Rotor, Thermo Fisher Scientific, UK). Following ultracentrifugation, approximately 1 mL of the upper layer containing CM was collected. TG concentration of CM emulsion was assessed using the TG enzymatic kit (Sigma Aldrich, Dorset, UK). TG concentration of the emulsion was adjusted to 100 mg/dL by diluting with PBS of 1.006 g/mL density. The CM emulsion was stored at 4 °C until the association assay (˂24 h).
The association of the compounds with artificial lipid particle emulsion and human CM was assessed using previously reported methodology with minor modifications. Briefly, 1 mL of artificial lipid particle or CM emulsions (TG concentration 100 mg/dL) was used for the association assay. The emulsion was spiked with stock solutions of tested compounds (in acetonitrile) to give a final concentration of 1.755 μM. The reaction mixtures were incubated at 37 °C for 1 h with magnetic stirring at 300 rpm. Following the incubation, density gradient ultracentrifugation was applied as described above to isolate the artificial lipid particles or CM associated with the tested compounds from the rest of the experimental medium. All experiments were conducted in quintuplicates or above.

[1] = Prodrug conversion assay in postprandial rat lymph; assay type: in vitro ADME; conditions: CM-rich postprandial rat lymph, ex vivo; relative to rat plasma
Description: The prodrugs were tested for their stability and conversion into their corresponding active drug using fasted state simulated intestinal fluid (FaSSIF) with added esterase enzyme activity (20 IU/mL), rat plasma, and postprandial rat lymph. The FaSSIF was prepared as previously described in the literature. The medium was pre-heated to 37 °C prior to the assay for 5 min. The experiment was initiated by spiking stock solutions of prodrugs to give a final concentration of 10 μM of the prodrugs in the medium. When the stability of the artificial emulsion-associated prodrugs was tested in plasma, the association of compounds with artificial emulsion was performed prior to stability experiments and the concentrations of the compounds in the associated emulsion were measured. The emulsion was then spiked to give a concentration of 10 μM of the prodrugs in plasma. The reaction mixtures were incubated at 37 °C and shaken at 200 rpm on a temperature-controlled orbital shaker (Thermo Scientific MaxQ4000, Waltham, MA, USA) for 4 h. Samples were withdrawn at pre-determined time points, and the reaction was terminated by addition of acetonitrile. The samples were then subjected to sample preparation and analysis as described below. […] Half-life of active drug release (t1/2) was calculated by the following equation: t1/2 = −0.693/k. […]

[2] = Biodistribution to mesenteric lymph nodes (MLN) and lymph following oral administration in rats; assay type: in vivo; conditions: dose equivalent to 10 mg/kg BEX, rat; for Kp: male, Sprague Dawley, intact prodrug
Description: The protocols for pharmacokinetic and biodistribution experiments in this study were reviewed and approved by the University of Nottingham Ethical Review Committee in accordance with the Animals [Scientific Procedures] Act 1986. Male Sprague Dawley rats (Charles River Laboratories, UK) weighing 350–380 g were used. The animals were housed in the Bio Support Unit, University of Nottingham. Continuous lymph collection was performed according to a protocol approved by the Institutional Animal Care and Use Committee at Rutgers, The State University of New Jersey. Male Sprague Dawley rats (Envigo, Inc., NJ, USA) weighing 300–350 g were used for the continuous lymph collection. Animals were allowed free access to food and water and were acclimatised for at least 6 days prior to any procedures at both institutions in a controlled-temperature environment with 12 h light/dark cycles.
Formulations were prepared as described in the above pharmacokinetic study and were delivered by an oral gavage. Animals were euthanised at pre-determined time points. Blood was collected from the posterior vena cava and lymph samples were taken from the mesenteric lymph duct. MLNs were dissected and collected as previously described. The MLNs were isolated from surrounding tissue with care not to compromise the integrity of the lymph nodes. The MLNs were homogenised (POLYTRON® PT 10–35 GT, Kinematica AG, Luzern, Switzerland) with 10 mg/mL NaF in water (1,2, w/v) on an ice bath prior to sample preparation for HPLC analysis.
A combination of protein precipitation and liquid-liquid extraction was applied to samples prior to HPLC injection. To 100 μL sample, 300 μL of acetonitrile was added for protein precipitation and then 300 μL of pH modifier was added when necessary (Supplementary Material Table S2). […] The organic layer was separated and evaporated under N2 gas. Reconstitution solvent (100 μL) was used as detailed in Supplementary Material Table S2 and 40 μL was injected into the HPLC-UV system. […] Therefore, storage and preparation of all samples were performed within the time frame and conditions of confirmed stability.
The HPLC-UV system consisting of a separation module (Waters Alliance 2695) equipped with a UV detector (Waters 996) was used for analysis. Samples in the autosampler were maintained at 4 °C and the column at 40 °C. The stationary and mobile phases were used as specified in Supplementary Material Table S2. BEX and its prodrugs were detected at 259 nm and RA and its prodrugs at 357 nm.

C=C(c1ccc(C(=O)OCC)cc1)c1cc2c(cc1C)C(C)(C)CCC2(C)C [prodrug 2]
association with human chylomicrons (CM) (human chylomicrons (CM)): equally high affinity to CM
half-life of active drug release in postprandial lymph [1]: prolonged
concentrations of BEX in intestinal lymphatics (MLNs, lymph) relative to plasma ([2]; BEX analyte, in words): comparable between the three matrices
Kp ([2]; mesenteric lymph / plasma, read-out: concentration of prodrug in lymph compared to plasma): 41
Kp ([2]; mesenteric lymph nodes (MLN) / plasma, read-out: concentration of prodrug in MLNs compared to plasma): 6
